Data set [1] relates to intestinal tissue (CD209) and lymph nodes of healthy mice. As to the kind of experiment: Free peptide homing in healthy Balb/C mice. It counts as in vivo, mouse. The settings on record: 30 nmoles i.v., 2 h. The method, then:
A, Thirty nmoles of FAM-UNO were injected intravenously in healthy Balb/C mice. Peptide was allowed to circulate for 2 hours. Mice were then sacrificed and intestinal tissue was analyzed by immunofluorescence using rabbit anti-FAM (green) together with rat anti-CD209 (red) and counterstained with DAPI. B, Thirty nmoles of FAM-UNO were injected intravenously in mice bearing 4T1 tumors, 10 days after orthotopic inoculation of 10^6 Cells. Peptide was let to circulate for two hours, mice were then sacked and tumor and tissues analyzed by immunofluorescence using rabbit Anti-FAM (green) together with rat anti-CD209 (red) and counterstained with DAPI (Blue). Images in A and B were taken using the same imaging conditions. Scale bar: 50 μm (images in B are at the same scale as in A). Representative images from n=3 mice.
Thirty nmoles of FAM-UNO were injected intravenously in healthy Balb/C female mice. Peptide was allowed to circulate for 2 hours. Mice were then sacrificed, and inguinal lymph node and kidney analyzed by immunofluorescence using rabbit anti-FAM together with rat anti-CD206 (red, 2901) and counterstained with DAPI (blue). FAM-UNO is absent from the healthy inguinal lymph node (left panel), while some CD206 is observed (2901). In the kidney (right panel), the FAM fluorescence signal is detected throughout the tissue. Scale bars: 100 μm. Representative images from n=3 mice.

For data set [2] the following is noted: 4T1 tumor lysate, injected within 1 min.
Procedure: High-performance liquid chromatography (Agilent 1200 series, USA)-mass spectrometry (SciexQ-Trap 4500, Canada) analysis was done using a C18 column (Kinetex 2.6 μm EVO C18 100×4.6 mm, Phenomenex, USA). Ionization was performed at 300° C. with declustering potential set 30 V. Chromatography gradient started with 2 min 5% acetonitrile in water, followed by linear increase to 95% acetonitrile in 10 min and finally 10 min isocratic flow of 95% acetonitrile in water. Both eluents, water and acetonitrile, contained 0.2% formic acid. Flow rate was 0.3 ml/min. Column temperature was maintained at 40° C. Autosampler temperature was set to 37° C. Retention times and m/z signals of FAM-UNO, were determined from 30 μM FAM-UNO solution in PBS. Tumor lysate was split into two aliquots of 200 μL in each. From one aliquot, 20 μL were injected and the LC-MS profile obtained. The second aliquot was mixed with 50 μL of 30 μM FAM-UNO in PBS and injected within 1 min to LC-MS and the LC-MS profile obtained.
Data set [3] concerns the target T1, recombinant human macrophage mannose receptor rhMMR/CD206 (Homo sapiens, UniProt P22897).
T1 construct: purchased R&D Systems 2534-MR-050
T1 sequence (P22897 19-1456): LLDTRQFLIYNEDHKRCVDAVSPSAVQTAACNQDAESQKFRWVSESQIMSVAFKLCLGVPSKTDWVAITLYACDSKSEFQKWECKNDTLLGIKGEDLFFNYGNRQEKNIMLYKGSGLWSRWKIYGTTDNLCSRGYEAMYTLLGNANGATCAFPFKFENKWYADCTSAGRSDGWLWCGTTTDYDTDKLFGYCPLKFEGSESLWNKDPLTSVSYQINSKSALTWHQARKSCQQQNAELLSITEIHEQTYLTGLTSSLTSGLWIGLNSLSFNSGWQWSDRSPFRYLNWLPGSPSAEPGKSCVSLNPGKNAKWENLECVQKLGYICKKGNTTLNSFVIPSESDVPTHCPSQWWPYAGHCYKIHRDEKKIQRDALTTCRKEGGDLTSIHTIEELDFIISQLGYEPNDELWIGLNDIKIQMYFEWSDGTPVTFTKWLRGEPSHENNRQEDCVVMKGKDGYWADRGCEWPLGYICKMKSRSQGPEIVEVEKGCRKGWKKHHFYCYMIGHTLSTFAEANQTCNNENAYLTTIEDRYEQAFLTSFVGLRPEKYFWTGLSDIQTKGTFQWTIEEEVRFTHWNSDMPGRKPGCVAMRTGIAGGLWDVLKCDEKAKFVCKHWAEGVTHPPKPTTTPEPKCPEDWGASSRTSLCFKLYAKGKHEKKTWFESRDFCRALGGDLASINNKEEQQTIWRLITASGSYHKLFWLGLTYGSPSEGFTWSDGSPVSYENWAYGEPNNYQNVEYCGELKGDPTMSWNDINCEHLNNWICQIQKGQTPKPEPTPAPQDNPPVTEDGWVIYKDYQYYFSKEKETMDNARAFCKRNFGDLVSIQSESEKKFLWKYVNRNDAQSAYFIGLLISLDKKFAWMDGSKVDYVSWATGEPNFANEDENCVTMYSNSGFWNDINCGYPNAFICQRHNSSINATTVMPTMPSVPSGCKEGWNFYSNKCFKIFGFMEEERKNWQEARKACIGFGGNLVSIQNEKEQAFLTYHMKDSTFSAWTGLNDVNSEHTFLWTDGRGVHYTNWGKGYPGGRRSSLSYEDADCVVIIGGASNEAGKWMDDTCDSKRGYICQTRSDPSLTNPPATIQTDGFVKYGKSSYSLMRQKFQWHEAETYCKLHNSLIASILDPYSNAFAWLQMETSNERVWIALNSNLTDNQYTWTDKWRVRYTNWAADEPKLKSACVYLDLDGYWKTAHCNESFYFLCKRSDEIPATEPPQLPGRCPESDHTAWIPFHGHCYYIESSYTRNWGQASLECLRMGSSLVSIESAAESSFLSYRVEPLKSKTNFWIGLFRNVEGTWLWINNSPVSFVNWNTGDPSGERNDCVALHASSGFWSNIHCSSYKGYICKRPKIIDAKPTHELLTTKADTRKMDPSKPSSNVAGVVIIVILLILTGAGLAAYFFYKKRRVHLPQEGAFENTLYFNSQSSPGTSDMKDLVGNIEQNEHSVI
As to the kind of experiment: Fluorescence anisotropy assay with human recombinant CD206. The settings on record: 100 nM FAM peptide, 0.4 μM protein. The class given is binding. The method, then: Time course of fluorescence anisotropy of FAM-mUNO during incubation with human recombinant CD206 (black curve, 3001) or with CD163 (red curve, 3003). The concentration of FAM-mUNO was 100 nM and the concentration of CD206 and CD163 was […]. The anisotropy for the FAM-mUNO alone is shown in the green curve 3004.
Fluorescence anisotropy was also carried out using recombinant human macrophage mannose receptor rhMMR/CD206 to determine whether UNO peptide interactions with mouse CD206 carried over to human CD206. […]
In all experiments, FA signal measurements were done under pseudo first-order conditions with 50 nM singly labelled FAM peptides and 1 μM proteins. […] Assays were carried out in kinetic mode in a total volume of 30 μl at 25° C. on the PHERAstar (BMG Labtech, Germany) microplate reader using an optical module with excitation and emission filters of 485 nm (slit 10 nm) and 520 nm (slit 10 nm), respectively. […] The background fluorescence (receptor and buffer components in the absence of fluorescent ligand) was subtracted independently from all intensity channels. FA signals at time t after initiation of binding reaction was calculated as parameters r(t) from the equation: […]
(In general: Fluorescence polarisation rises when a labelled molecule tumbles more slowly, as on binding a larger partner.)

Ends that are not written are not given here. FAM = 5(6)-carboxyfluorescein; Ahx = NCCCCCC(=O)O

Consider “FAM-UNO: FAM-labeled UNO peptide CSPGAKVRC (SEQ ID NO: 1); 5(6)-carboxyfluorescein with 6-aminohexanoic acid spacer at the N-terminus ({FAM-Ahx}-CSPGAKVRC; cysteine pairing not given here)”, for which, in data set [1], the “homing to lymph nodes of healthy mice” value is “did not home to the lymph nodes of healthy Balb/C mice” and the “recruitment to intestinal tissue (expresses CD209) of healthy mice” value is “not recruited to intestinal tissue of healthy mice”. Besides, the “fate of the disulfide bridge on incubation with tumor lysate” value in data set [2] was “the disulfide bridge was reduced to yield a linear peptide”. The “change in fluorescence anisotropy (interaction) with human recombinant CD206” value in data set [3] is recorded as “did not cause a change in the fluorescence anisotropy”.
